Oligonucleotides are given in HELM: sugar(base)linkage, 5' to 3'; d 2'-deoxyribose, r ribose, m 2'-O-methylribose, p phosphate. ss, as = sense and antisense strand
Note: test concentration or dose not given here.

The series has as its target UBE2K. The series can be described thus: reporter assay of Huesken 2005. The conditions noted are these: siRNA.
As to “RNA1{r(A)p.r(G)p.r(G)p.r(A)p.r(U)p.r(G)p.r(C)p.r(U)p.r(G)p.r(U)p.r(A)p.r(G)p.r(U)p.r(A)p.r(G)p.r(C)p.r(A)p.r(A)p.r(A)p.d(T)p.d(T)}|RNA2{r(U)p.r(U)p.r(U)p.r(G)p.r(C)p.r(U)p.r(A)p.r(C)p.r(U)p.r(A)p.r(C)p.r(A)p.r(G)p.r(C)p.r(A)p.r(U)p.r(C)p.r(C)p.r(U)p.d(G)p.d(T)}$$$RNA1{StrandType:ss}|RNA2{StrandType:as}$”, the normalised inhibition (eCFP-eYFP dual reporter) came to 92.1%. The substance “RNA1{r(A)p.r(G)p.r(G)p.r(G)p.r(G)p.r(C)p.r(U)p.r(A)p.r(U)p.r(U)p.r(U)p.r(G)p.r(U)p.r(U)p.r(U)p.r(G)p.r(G)p.r(A)p.r(U)p.d(T)p.d(T)}|RNA2{r(A)p.r(U)p.r(C)p.r(C)p.r(A)p.r(A)p.r(A)p.r(C)p.r(A)p.r(A)p.r(A)p.r(U)p.r(A)p.r(G)p.r(C)p.r(C)p.r(C)p.r(C)p.r(U)p.d(G)p.d(T)}$$$RNA1{StrandType:ss}|RNA2{StrandType:as}$” registered a normalised inhibition (eCFP-eYFP dual reporter) of 71%.

For “RNA1{r(A)p.r(G)p.r(U)p.r(A)p.r(G)p.r(A)p.r(U)p.r(C)p.r(U)p.r(U)p.r(G)p.r(U)p.r(A)p.r(G)p.r(A)p.r(U)p.r(G)p.r(A)p.r(G)p.d(T)p.d(T)}|RNA2{r(C)p.r(U)p.r(C)p.r(A)p.r(U)p.r(C)p.r(U)p.r(A)p.r(C)p.r(A)p.r(A)p.r(G)p.r(A)p.r(U)p.r(C)p.r(U)p.r(A)p.r(C)p.r(U)p.d(T)p.d(T)}$$$RNA1{StrandType:ss}|RNA2{StrandType:as}$”, the normalised inhibition (eCFP-eYFP dual reporter) was 88.2%.

“RNA1{r(A)p.r(U)p.r(A)p.r(C)p.r(C)p.r(A)p.r(A)p.r(C)p.r(U)p.r(A)p.r(G)p.r(A)p.r(G)p.r(A)p.r(U)p.r(A)p.r(A)p.r(A)p.r(A)p.d(T)p.d(T)}|RNA2{r(U)p.r(U)p.r(U)p.r(U)p.r(A)p.r(U)p.r(C)p.r(U)p.r(C)p.r(U)p.r(A)p.r(G)p.r(U)p.r(U)p.r(G)p.r(G)p.r(U)p.r(A)p.r(U)p.d(C)p.d(T)}$$$RNA1{StrandType:ss}|RNA2{StrandType:as}$” displayed a normalised inhibition (eCFP-eYFP dual reporter) of 78.5%. As for “RNA1{r(A)p.r(U)p.r(A)p.r(C)p.r(C)p.r(A)p.r(G)p.r(A)p.r(A)p.r(A)p.r(C)p.r(A)p.r(U)p.r(A)p.r(C)p.r(C)p.r(C)p.r(A)p.r(U)p.d(T)p.d(T)}|RNA2{r(A)p.r(U)p.r(G)p.r(G)p.r(G)p.r(U)p.r(A)p.r(U)p.r(G)p.r(U)p.r(U)p.r(U)p.r(C)p.r(U)p.r(G)p.r(G)p.r(U)p.r(A)p.r(U)p.d(T)p.d(T)}$$$RNA1{StrandType:ss}|RNA2{StrandType:as}$”, the normalised inhibition (eCFP-eYFP dual reporter) came to 76.3%. Consider “RNA1{r(A)p.r(U)p.r(A)p.r(G)p.r(C)p.r(A)p.r(G)p.r(G)p.r(A)p.r(C)p.r(C)p.r(U)p.r(C)p.r(C)p.r(A)p.r(G)p.r(A)p.r(C)p.r(A)p.d(T)p.d(T)}|RNA2{r(U)p.r(G)p.r(U)p.r(C)p.r(U)p.r(G)p.r(G)p.r(A)p.r(G)p.r(G)p.r(U)p.r(C)p.r(C)p.r(U)p.r(G)p.r(C)p.r(U)p.r(A)p.r(U)p.d(T)p.d(T)}$$$RNA1{StrandType:ss}|RNA2{StrandType:as}$”, for which the normalised inhibition (eCFP-eYFP dual reporter) was 69.8%.

Regarding “RNA1{r(A)p.r(U)p.r(C)p.r(A)p.r(A)p.r(U)p.r(G)p.r(G)p.r(G)p.r(C)p.r(A)p.r(G)p.r(C)p.r(U)p.r(G)p.r(C)p.r(A)p.r(A)p.r(U)p.d(T)p.d(T)}|RNA2{r(A)p.r(U)p.r(U)p.r(G)p.r(C)p.r(A)p.r(G)p.r(C)p.r(U)p.r(G)p.r(C)p.r(C)p.r(C)p.r(A)p.r(U)p.r(U)p.r(G)p.r(A)p.r(U)p.d(C)p.d(T)}$$$RNA1{StrandType:ss}|RNA2{StrandType:as}$”, the normalised inhibition (eCFP-eYFP dual reporter) came to 48.4%. Under “RNA1{r(A)p.r(U)p.r(C)p.r(C)p.r(U)p.r(A)p.r(A)p.r(U)p.r(A)p.r(U)p.r(U)p.r(A)p.r(G)p.r(U)p.r(U)p.r(C)p.r(C)p.r(G)p.r(U)p.d(T)p.d(T)}|RNA2{r(A)p.r(C)p.r(G)p.r(G)p.r(A)p.r(A)p.r(C)p.r(U)p.r(A)p.r(A)p.r(U)p.r(A)p.r(U)p.r(U)p.r(A)p.r(G)p.r(G)p.r(A)p.r(U)p.d(G)p.d(C)}$$$RNA1{StrandType:ss}|RNA2{StrandType:as}$” stands 53.2%; under “RNA1{r(A)p.r(U)p.r(C)p.r(U)p.r(U)p.r(G)p.r(U)p.r(A)p.r(G)p.r(A)p.r(U)p.r(G)p.r(A)p.r(G)p.r(A)p.r(A)p.r(U)p.r(U)p.r(U)p.d(T)p.d(T)}|RNA2{r(A)p.r(A)p.r(A)p.r(U)p.r(U)p.r(C)p.r(U)p.r(C)p.r(A)p.r(U)p.r(C)p.r(U)p.r(A)p.r(C)p.r(A)p.r(A)p.r(G)p.r(A)p.r(U)p.d(C)p.d(T)}$$$RNA1{StrandType:ss}|RNA2{StrandType:as}$”, 81.3%.

Substance “RNA1{r(A)p.r(U)p.r(G)p.r(A)p.r(C)p.r(U)p.r(C)p.r(U)p.r(C)p.r(C)p.r(G)p.r(C)p.r(A)p.r(C)p.r(G)p.r(G)p.r(U)p.r(A)p.r(U)p.d(T)p.d(T)}|RNA2{r(A)p.r(U)p.r(A)p.r(C)p.r(C)p.r(G)p.r(U)p.r(G)p.r(C)p.r(G)p.r(G)p.r(A)p.r(G)p.r(A)p.r(G)p.r(U)p.r(C)p.r(A)p.r(U)p.d(T)p.d(G)}$$$RNA1{StrandType:ss}|RNA2{StrandType:as}$” gave a normalised inhibition (eCFP-eYFP dual reporter) of 85.7%. For “RNA1{r(A)p.r(U)p.r(G)p.r(U)p.r(U)p.r(C)p.r(A)p.r(A)p.r(A)p.r(C)p.r(A)p.r(G)p.r(A)p.r(C)p.r(A)p.r(G)p.r(C)p.r(U)p.r(C)p.d(T)p.d(T)}|RNA2{r(G)p.r(A)p.r(G)p.r(C)p.r(U)p.r(G)p.r(U)p.r(C)p.r(U)p.r(G)p.r(U)p.r(U)p.r(U)p.r(G)p.r(A)p.r(A)p.r(C)p.r(A)p.r(U)p.d(T)p.d(T)}$$$RNA1{StrandType:ss}|RNA2{StrandType:as}$”, the normalised inhibition (eCFP-eYFP dual reporter) is 64.6%.

Turning to “RNA1{r(A)p.r(U)p.r(U)p.r(A)p.r(A)p.r(A)p.r(G)p.r(U)p.r(A)p.r(G)p.r(A)p.r(U)p.r(C)p.r(U)p.r(U)p.r(G)p.r(U)p.r(A)p.r(G)p.d(T)p.d(T)}|RNA2{r(C)p.r(U)p.r(A)p.r(C)p.r(A)p.r(A)p.r(G)p.r(A)p.r(U)p.r(C)p.r(U)p.r(A)p.r(C)p.r(U)p.r(U)p.r(U)p.r(A)p.r(A)p.r(U)p.d(T)p.d(T)}$$$RNA1{StrandType:ss}|RNA2{StrandType:as}$”, the normalised inhibition (eCFP-eYFP dual reporter) turned out to be 45.8%.

For the substance “RNA1{r(A)p.r(U)p.r(U)p.r(G)p.r(G)p.r(C)p.r(A)p.r(G)p.r(C)p.r(U)p.r(G)p.r(C)p.r(A)p.r(G)p.r(A)p.r(G)p.r(C)p.r(C)p.r(A)p.d(T)p.d(T)}|RNA2{r(U)p.r(G)p.r(G)p.r(C)p.r(U)p.r(C)p.r(U)p.r(G)p.r(C)p.r(A)p.r(G)p.r(C)p.r(U)p.r(G)p.r(C)p.r(C)p.r(A)p.r(A)p.r(U)p.d(A)p.d(G)}$$$RNA1{StrandType:ss}|RNA2{StrandType:as}$”, the normalised inhibition (eCFP-eYFP dual reporter) came to 85%. The substance “RNA1{r(A)p.r(U)p.r(U)p.r(G)p.r(U)p.r(C)p.r(A)p.r(U)p.r(U)p.r(G)p.r(C)p.r(A)p.r(A)p.r(G)p.r(C)p.r(A)p.r(C)p.r(U)p.r(A)p.d(T)p.d(T)}|RNA2{r(U)p.r(A)p.r(G)p.r(U)p.r(G)p.r(C)p.r(U)p.r(U)p.r(G)p.r(C)p.r(A)p.r(A)p.r(U)p.r(G)p.r(A)p.r(C)p.r(A)p.r(A)p.r(U)p.d(A)p.d(A)}$$$RNA1{StrandType:ss}|RNA2{StrandType:as}$” yielded a normalised inhibition (eCFP-eYFP dual reporter) of 85.4%. In turn, “RNA1{r(C)p.r(A)p.r(C)p.r(C)p.r(A)p.r(U)p.r(A)p.r(U)p.r(G)p.r(A)p.r(A)p.r(G)p.r(G)p.r(A)p.r(G)p.r(G)p.r(A)p.r(A)p.r(G)p.d(T)p.d(T)}|RNA2{r(C)p.r(U)p.r(U)p.r(C)p.r(C)p.r(U)p.r(C)p.r(C)p.r(U)p.r(U)p.r(C)p.r(A)p.r(U)p.r(A)p.r(U)p.r(G)p.r(G)p.r(U)p.r(G)p.d(T)p.d(G)}$$$RNA1{StrandType:ss}|RNA2{StrandType:as}$” yielded a normalised inhibition (eCFP-eYFP dual reporter) of 69.5%.

“RNA1{r(C)p.r(A)p.r(G)p.r(A)p.r(C)p.r(A)p.r(C)p.r(A)p.r(C)p.r(C)p.r(A)p.r(U)p.r(A)p.r(U)p.r(G)p.r(A)p.r(A)p.r(G)p.r(G)p.d(T)p.d(T)}|RNA2{r(C)p.r(C)p.r(U)p.r(U)p.r(C)p.r(A)p.r(U)p.r(A)p.r(U)p.r(G)p.r(G)p.r(U)p.r(G)p.r(U)p.r(G)p.r(U)p.r(C)p.r(U)p.r(G)p.d(G)p.d(A)}$$$RNA1{StrandType:ss}|RNA2{StrandType:as}$” yielded a normalised inhibition (eCFP-eYFP dual reporter) of 72.8%. The substance “RNA1{r(C)p.r(A)p.r(G)p.r(A)p.r(G)p.r(C)p.r(C)p.r(A)p.r(G)p.r(A)p.r(U)p.r(G)p.r(A)p.r(U)p.r(C)p.r(C)p.r(A)p.r(C)p.r(A)p.d(T)p.d(T)}|RNA2{r(U)p.r(G)p.r(U)p.r(G)p.r(G)p.r(A)p.r(U)p.r(C)p.r(A)p.r(U)p.r(C)p.r(U)p.r(G)p.r(G)p.r(C)p.r(U)p.r(C)p.r(U)p.r(G)p.d(C)p.d(A)}$$$RNA1{StrandType:ss}|RNA2{StrandType:as}$” showed a normalised inhibition (eCFP-eYFP dual reporter) of 82.5%.

Regarding “RNA1{r(C)p.r(A)p.r(G)p.r(G)p.r(A)p.r(U)p.r(G)p.r(C)p.r(U)p.r(G)p.r(U)p.r(A)p.r(G)p.r(U)p.r(A)p.r(G)p.r(C)p.r(A)p.r(A)p.d(T)p.d(T)}|RNA2{r(U)p.r(U)p.r(G)p.r(C)p.r(U)p.r(A)p.r(C)p.r(U)p.r(A)p.r(C)p.r(A)p.r(G)p.r(C)p.r(A)p.r(U)p.r(C)p.r(C)p.r(U)p.r(G)p.d(T)p.d(G)}$$$RNA1{StrandType:ss}|RNA2{StrandType:as}$”, the normalised inhibition (eCFP-eYFP dual reporter) was found to be 93%. For “RNA1{r(C)p.r(A)p.r(G)p.r(U)p.r(A)p.r(C)p.r(A)p.r(A)p.r(A)p.r(C)p.r(A)p.r(A)p.r(A)p.r(A)p.r(U)p.r(C)p.r(C)p.r(C)p.r(G)p.d(T)p.d(T)}|RNA2{r(C)p.r(G)p.r(G)p.r(G)p.r(A)p.r(U)p.r(U)p.r(U)p.r(U)p.r(G)p.r(U)p.r(U)p.r(U)p.r(G)p.r(U)p.r(A)p.r(C)p.r(U)p.r(G)p.d(A)p.d(T)}$$$RNA1{StrandType:ss}|RNA2{StrandType:as}$”, the normalised inhibition (eCFP-eYFP dual reporter) worked out at 70.1%. In turn, “RNA1{r(C)p.r(C)p.r(A)p.r(G)p.r(A)p.r(A)p.r(A)p.r(C)p.r(A)p.r(U)p.r(A)p.r(C)p.r(C)p.r(C)p.r(A)p.r(U)p.r(U)p.r(U)p.r(A)p.d(T)p.d(T)}|RNA2{r(U)p.r(A)p.r(A)p.r(A)p.r(U)p.r(G)p.r(G)p.r(G)p.r(U)p.r(A)p.r(U)p.r(G)p.r(U)p.r(U)p.r(U)p.r(C)p.r(U)p.r(G)p.r(G)p.d(T)p.d(A)}$$$RNA1{StrandType:ss}|RNA2{StrandType:as}$” gave a normalised inhibition (eCFP-eYFP dual reporter) of 72.4%.

The record behind these values is the OligoGym collection.
